Measured values published in publication PMC9661476 (Journal of Medicinal Chemistry, 2022).
Values after ≈ are worked out from the molar mass of the structure shown. Like-named read-outs stand apart in the source and are kept apart here.

Legend:
[1] = Aqueous solubility measurement; type: physicochemical; settings: for solubility: distilled or deionized water; for solubility, single assay: water
Description: Then, distilled or deionized water was added under gentle agitation until total dissolution. All the experiments were performed in triplicate.

plasmatic TTR = settings: Phase IIa, FAP patients; cited from earlier work
[2] = assays 1-3 of triplicate, read-out: solubility, single assay
[3] = average of triplicate, read-out: solubility, average

SMILES	melting point	solubility [1, 2]	solubility [1, 3]	solubility, single assay ([1]; assays 1-3 of triplicate)	Adverse events (plasmatic TTR)
O=C(c1cc(Cl)cc(Cl)c1)c1cc(O)c(O)c([N+](=O)[O-])c1 [Compound M-20, (3,5-Dichlorophenyl)-(3,4-dihydroxy-5-nitrophenyl)methanone]	182 to 184 °C	–	–	–	–
O=C(c1cc(F)cc(F)c1)c1cc(O)c(O)c([N+](=O)[O-])c1 [Compound M-21, (3,5-Difluorophenyl)-(3,4-dihydroxy-5-nitrophenyl)methanone]	135 to 137 °C	–	–	–	–
Cc1ccc(C(=O)c2cc(O)c(O)c([N+](=O)[O-])c2)cc1 [tolcapone, 3,4-dihydroxy-4′-methyl-5-nitrobenzophenone, reference compound]	–	56 µg/mL (≈ 205 µM)	56 µg/mL (≈ 205 µM)	55 µg/mL (≈ 201 µM)	no adverse events were registered
O=C(c1cc(O)cc(F)c1)c1cc(O)c(O)c([N+](=O)[O-])c1 [Compound M-23, (3,4-Dihydroxy-5-nitrophenyl)-(3-fluoro-5-hydroxyphenyl)methanone]	–	44 µg/mL (≈ 150 µM)	45 µg/mL (≈ 153 µM)	45 µg/mL (≈ 153 µM)	–
O=C(c1ccc(C(F)(F)F)cc1)c1cc(O)c(O)c([N+](=O)[O-])c1 [Compound M-14, (3,4-Dihydroxy-5-nitrophenyl)-[4-(trifluoromethyl)phenyl]methanone]	68 to 71 °C	–	–	–	–
